The subject of one series is bacterial cytochrome bd. Further details: method as in PMID 7827023. To be noted: cited from earlier work.
In series [1] the test system is Vero cells (nontumor cells). The series is described as follows: Cytotoxicity on Vero cells (MTT). To be noted: 48 h incubation. It counts as cell-based. The protocol: was further incubated for 1.5 h. The medium was then discarded and 100 µL 2-propanol/10 N HCl (250:1) was added in order to dissolve formazan granules. The absorbance at 570 nm was measured using a microplate reader (EL808, Bio-Tek Instruments Inc.) and cell viability was expressed as a percentage relative to the respective solvent control. VERO cells: VERO cells were seeded into 96-well microplates at 10^5 cells per mL in RPMI supplemented with 10% foetal calf serum.
After 24 h, the cells were washed and two microliters of two-fold serial dilutions of each compound (10 mg/mL) was added to 100 μL of medium. Cells were then incubated for 48 h at 37 ° C under a 5% CO2 atmosphere. At the end of incubation, 20 µL of MTT solution (5 mg/mL) was added to each well and further incubated for 4 h at 37 °C to allow the formation of formazan. The crystals of formazan were then dissolved with 100 µL of a freshly prepared solution of sodium dodecyl sulfate (SDS) 10% (15 mL) and HCl 1 N (150 µL). The optical density of each well was measured at 595 nm using a multiwell plate reader. The 50% inhibition concentration was then determined by curve fitting.
MMP assay: Human U-2 OS osteosarcoma cells (HTB-96) were obtained from the American Type Culture Collection (ATCC) and were cultured under the conditions recommended by the depositor. Cells from actively growing cultures were harvested and seeded at 8 × 10^3 cells per well in 96-well imaging plates (BD Falcon). After 1 d cells reached approximately 60% confluency and were treated with aurachin analogues at the assigned concentrations for 16 h. In addition, cells were stimulated with 1 µM FCCP [carbonyl cyanide 4-(trifluoromethoxy)phenylhydrazone] as a positive control 1 h prior to the measurement. For labeling, cells were washed twice with assay buffer ([…], 5.4 mM KCl, 2 mM MgCl2, 10 mM glucose, 2 mM CaCl2, 10 mM HEPES; pH 7.35) and 100 µL of a staining solution (50 nM TMRM,

The nature of series [2]: Cytotoxicity, growth inhibition (MTT). In kind it is cell-based, human. To be noted: human, cell line not named at the place (Table 2: HCT-116 and K562); read-out: cytotoxic activity (IC50) on mammalian cell lines. The method, then:
The cytotoxic activity of aurachin D (4) and analogues 9–11 and 17–19 was evaluated in growth inhibition experiments on mammalian cell lines (Table 2). After 5 days treatment, half inhibitory concentrations (IC50) were determined for human HCT-116 colon carcinoma and human K562 myelogenous leukemia cells. […]
was further incubated for 1.5 h. The medium was then discarded and 100 µL 2-propanol/10 N HCl (250:1) was added in order to dissolve formazan granules. The absorbance at 570 nm was measured using a microplate reader (EL808, Bio-Tek Instruments Inc.) and cell viability was expressed as a percentage relative to the respective solvent control. […]

≈ marks a conversion by molar mass, not a printed value.

For orientation: IC50 means the point on the concentration scale where inhibition reaches its midpoint.

`CC(C)=CCC/C(C)=C/CC/C(C)=C/Cc1c(C)[nH]c2ccccc2c1=O` [compound 4, aurachin D]: the “inhibition of the cytochrome bd complex” value in the series with bacterial cytochrome bd is on record as “selectively inhibit”. For the same compound, in series [1], the concentration for half-maximal inhibition (IC50) came to 13.8 mg/L (≈ 38 µM). Turning to `COc1ccc2[nH]c(C)c(CC=C(C)CCC=C(C)CCC=C(C)C)c(=O)c2c1` [compound 18], in series [2], the IC50 at 5 days was around 1 mg/L (≈ 2.54 µM).

Regarding `CC(C)=CCCC(C)=CCCC(C)=CCc1c(C)[nH]c2cc3c(cc2c1=O)OCO3` [compound 19], in series [1], the IC50 amounted to 4.4 mg/L (≈ 10.8 µM).

The values are drawn from publication PMC3740496, “Synthesis and biological activities of the respiratory chain inhibitor aurachin D and new ring versus chain analogues” (Beilstein Journal of Organic Chemistry, 2013).
